Patent publication US8933017B2, “CD44V6 peptides as inhibitors of bacterial infections” (Karlsruher Institut fur Technologie, priority 2009, dated 2015)

How the values were obtained:
[1] = test system: c-Met; assay: InIB-induced c-Met phosphorylation in HeLa and HT29 cells; format: cell-based, human; conditions: peptide 100 ng/ml 30 min before InIB 1 nM 5 min
Method: (§1) HeLa cells were induced with InIB (A) at a concentration of 1 nM for 5 min at 37° C. Pretreatment with a control peptide or a CD44v6 14-mer peptide having SEQ ID NO: 2 at a concentration of 100 ng/ml for 30 min was performed when indicated. Phosphorylation of c-Met and of Erk were measured as described in experimental procedures. The same experiments were performed with the HT29 cells (B). (C) HeLa cells were transfected with two different siRNA (v6-1 and v6-2, described in experimental procedures) to downregulate CD44v6 and with a control siRNA. 48 h after transfection, cells were starved for additional 24 h. InIB-induced c-Met and Erk phosphorylation were measured. The expression of CD44v6 was detected by Western Blot analysis. The numbers reflect-fold induction as determined by densitometric scanning (Image J program).
(§2) The human colon adenocarcinoma cell lines HT29 and the human cervix carcinoma cell line HeLa (American tissue culture collection, ATCC; Wesel, Germany. Accession no: CCL-2) were grown in Dulbecco's modified Eagle's medium (DMEM; Invitrogen, Karlsruhe, Germany) supplemented with 10% fetal calf serum (FCS; PAA Cölbe, Germany). The rat pancreatic carcinoma cell line BSp73AS and its transfectant BSp73ASs6 were grown in RMPI (Invitrogen, Karlsruhe, Germany) plus 10% FCS.
(§3) In all experiments cells were induced with 1 nM of InIB where indicated. […]

[2] = test system: Erk; assay: InIB-induced Erk phosphorylation in HeLa and HT29 cells; format: cell-based, human; conditions: peptide 100 ng/ml 30 min before InIB 1 nM 5 min
Method: as §1, §2, §3

[3] = test system: HeLa cells; assay: Latex bead invasion assay (InIB-coated beads); format: cell-based, human; conditions: HeLa cells preincubated with peptide
Method: Control beads or beads coated with InIB (see experimental procedures) were incubated with HeLa cells. Cells were pretreated with a CD44v6 peptide having SEQ ID NO: 2 or a control peptide for one hour as indicated. Extracellular beads bind to a Cy3-labelled antibody and are stained red in immunofluorescence microscopy. In phase contrast microscopy both extracellular and intracellular beads are detected. The number of internalized beads (black) was counted in approximately a thousand cells and shown as intracellular beads/100 cells in the graph. The results are expressed as means±standard deviation of three independent experiments.
In1B-dependent c-Met and Erk phosphorylation was measured in HeLa cells transiently transfected with a control vector or a vector coding for a truncated version of ezrin deprived of the actin binding domain (ezΔABD or DN Ezrin). In these cells also the uptake of latex beads was determined as described in FIG. 4.
Coating of the beads with InIB was performed as is known in the art. Briefly, 25 μl of latex beads (4×10^8 beads/ml, Dynabeads M-450, Dynal, Invitrogen, Karlsruhe, Germany) were coated with goat anti-mouse IgG and then incubated with 0.5 ml of hybridoma cell supernatant of monoclonal anti-InIB antibody for 2 h at 4° C. […]

[4] = test system: HT29 cells; assay: Scattering assay (InIB-induced); format: cell-based, human; conditions: InIB 1 nM 48 h, antibody 100 μg/ml or peptide 100 ng/ml
Method: Scattering of HT29 cells was determined after treatment with InIB alone or together with a control peptide or a CD44v6 peptide or antibody as indicated. The magnification used was ×20.
HT29 cells were seeded at a concentration of 3×10^5 cells/well in a 6-well plate. They were then incubated with InIB (1 nM) for 48 h at 37° C. For the blocking experiments, CD44 anti-v6 antibodies (Biwa; 100 μg/ml) or a CD44v6 peptide (100 ng/ml) were added before addition of InIB. Pictures were taken using a phase contrast microscope 48 h after induction.

[5] = test system: c-Met; assay: InIB-induced c-Met phosphorylation in ASs6 cells; format: cell-based, rat; conditions: peptide 100 ng/ml before InIB
Method: (§4) AS cells or ASs6 cells were induced with InIB as indicated (A) and ASs6 cells in addition with a CD44v6 14-mer peptide having SEQ ID NO: 1 or an unrelated (control) peptide (B). Erk phosphorylation (A,B) or c-Met phosphorylation (B) was determined. In (C), HeLa cells were induced either with HGF or InIB for 5 min at 37° C. CD44v6 was immunoprecipitated from the lysates and a Western Blot was performed using CD44v6 and c-Met antibodies as indicated. For control, an IgG antibody was used. The numbers reflect-fold induction as determined by densitometric scanning (Image J program).
as §2
(§5) In all experiments cells were induced with 1 nM of InIB where indicated. Induction was performed for 5 min at 37° C. Blocking experiments were performed by incubating the CD44v6 14-mer peptide having for example SEQ ID NO: 2 or SEQ ID NO: 1 (100 ng/ml) or the control peptide (100 ng/ml) for 30 min at 37° C. prior to induction with InIB. […]

[6] = test system: Erk; assay: InIB-induced Erk phosphorylation in ASs6 cells; format: cell-based, rat; conditions: peptide 100 ng/ml before InIB
Method: as §4, §2, §5

Row | Substance | InIB-induced activation of c-Met [1] | downstream signaling monitored by Erk activation [2] | entry of InIB-coated beads [3] | entry of InIB-coated beads blocked [3] | InIB-induced scattering [4] | InIB-induced c-Met phosphorylation [5] | InIB-induced Erk phosphorylation [6]
1 | KEQWFGNRWHEGYR (listed as Homo sapiens) [human CD44v6 14-mer peptide] | completely abrogated | inhibited | drastic decrease | ~100% | blocked | – | –
2 | CD44v6 peptide having SEQ ID NO:1: CD44v6 14-mer peptide having SEQ ID NO: 1, used on rat ASs6 cells (KEKWFENEWQGKNP; listed as Rattus norvegicus) | – | – | – | – | – | abrogated | abrogated
